Assay results taken from patent US10160732B2, “MIF inhibitors” (MIFCARE, priority 2014, dated 2018).

Biological target: T1, recombinant human MIF (Homo sapiens, UniProt P14174)
T1 construct: purchased RayBiotech
T1 sequence (P14174 2-115 limits assumed): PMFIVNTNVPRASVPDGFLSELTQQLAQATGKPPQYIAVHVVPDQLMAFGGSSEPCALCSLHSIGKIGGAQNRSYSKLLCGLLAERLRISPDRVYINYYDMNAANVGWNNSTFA
Assay: MIF tautomerase assay using 4-hydroxyphenylpyruvate (4-HPP)
Assay type: biochemical
Conditions: compounds tested at 1 nM; 300 ng/mL rhMIF; 4-HPP substrate; compared to positive control with recombinant human MIF alone
Method: Tautomerase activity was assessed using 4-hydroxyphenylpyruvate (4-HPP) as substrate. 4-HPP was dissolved in 50 mM ammonium acetate at pH 6.0, allowed to equilibrate to room temperature and stored at −20° C. 300 ng/mL of recombinant human MIF (rhMIF; RayBiotech, Le Perray en Yvelines, France) and tested compounds were pre-incubated at room temperature for 15 min. Tautomerase activity was assessed at room temperature, by adding 4-HHP to a 96-well plate containing 0.435 M boric acid at pH 6.6 and rhMIF with or without (positive control) tested compounds (1 nM), and by measuring the increase in absorbance at 320 nm over 10-360 s using the 2103 EnVision™ Multilabel Plate Readers (PerkinElmer, Villebon-sur-Yvette, France). Compounds were tested at 1 nM. The assay was replicated 3 times independently.
Compounds 38, 39 and 41 of the present invention were tested and compared to their respective “C═O” isosteres 38-O, 39-O and 41-O. Results are also compared to prototypical MIF inhibitor ISO-1.
Results are presented in table 2 below and represent the percentage of MIF tautomerase activity inhibition as compared to the positive control with recombinant human MIF alone.

Row | inhibition at 0.001 µM | Structure (SMILES)
1 | 12% | Cc1ccc2oc(=O)n(Cc3ccccc3)c2c1 [Compound 39-O]
2 | 31% | COc1ccccc1Cn1c(=O)oc2ccc(C)cc21 [Compound 41-O]
